Common to all, as to type: ADME
Data set [1] deals with T1, UDP-glucuronosyltransferase 2B17 (Homo sapiens, UniProt O75795).
T1 sequence (O75795 whole entry): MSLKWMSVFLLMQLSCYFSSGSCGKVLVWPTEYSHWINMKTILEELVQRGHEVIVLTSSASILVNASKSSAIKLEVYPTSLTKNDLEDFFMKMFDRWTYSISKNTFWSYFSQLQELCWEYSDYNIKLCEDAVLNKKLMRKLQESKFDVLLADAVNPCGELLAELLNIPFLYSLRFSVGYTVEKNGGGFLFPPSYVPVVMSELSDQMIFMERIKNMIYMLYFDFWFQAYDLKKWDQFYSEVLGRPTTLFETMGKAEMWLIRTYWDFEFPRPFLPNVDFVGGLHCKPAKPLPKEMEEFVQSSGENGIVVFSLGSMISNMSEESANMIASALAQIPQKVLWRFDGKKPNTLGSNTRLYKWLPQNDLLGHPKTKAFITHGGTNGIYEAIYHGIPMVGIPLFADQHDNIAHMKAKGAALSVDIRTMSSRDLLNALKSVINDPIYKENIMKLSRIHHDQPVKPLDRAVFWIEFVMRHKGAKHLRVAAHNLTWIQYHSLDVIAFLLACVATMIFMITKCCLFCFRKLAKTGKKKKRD
The data set can be described thus: Activity of human recombinant UGT2B17 expressed in insect cells assessed as enzyme mediated glucuronidation in presence of 5 to 35 uM androsterone by LC-MS/MS method.

Data set [2] has as its target T2, UDP-glucuronosyltransferase 2B15 (Homo sapiens, UniProt P54855).
T2 sequence (P54855 whole entry): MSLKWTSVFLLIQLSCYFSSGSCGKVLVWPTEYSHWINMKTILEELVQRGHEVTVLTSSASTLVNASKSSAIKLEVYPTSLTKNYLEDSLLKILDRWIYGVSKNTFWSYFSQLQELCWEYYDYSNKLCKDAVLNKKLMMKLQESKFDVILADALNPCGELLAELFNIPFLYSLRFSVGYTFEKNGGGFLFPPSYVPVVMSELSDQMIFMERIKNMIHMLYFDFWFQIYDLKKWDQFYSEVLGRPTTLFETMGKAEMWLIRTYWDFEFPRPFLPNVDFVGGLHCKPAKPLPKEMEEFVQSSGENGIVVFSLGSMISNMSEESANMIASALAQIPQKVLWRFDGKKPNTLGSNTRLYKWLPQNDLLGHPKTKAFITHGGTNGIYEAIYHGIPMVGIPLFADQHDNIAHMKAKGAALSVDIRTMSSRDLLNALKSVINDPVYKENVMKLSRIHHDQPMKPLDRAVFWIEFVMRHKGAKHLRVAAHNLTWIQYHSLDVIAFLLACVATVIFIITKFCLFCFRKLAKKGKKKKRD
The data set can be described thus: Activity of human recombinant UGT2B15 expressed in insect cells assessed as enzyme mediated glucuronidation at 500 uM by LC-MS/MS method.

Data set [3] in a line: Drug metabolism in human kidney microsomes assessed as intrinsic clearance for drug glucuronidation per mg tissue in absence of BSA by LC-MS/MS method.

Take `CC1=NN(c2ccccc2)C(=O)C1` [EDARAVONE]: the Drug metabolism entry in data set [1] was “metabolite_not_detected”. Further, the Drug metabolism entry in data set [2] is given as “metabolite_detected”. In data set [3], the CL(high) is 45.3 µL/min/mg and the CL(low) was 1.8 µL/min/mg.
